# Measured values published in patent US7396837B2, “Antitumoral analogs of lamellarins” (Pharma Mar, S.A.U., priority 2002, dated 2008).
# Test system: LNCaP
# Experiment: SRB colorimetric cell growth inhibition assay, LNCaP
# Type: cell-based
# Conditions: Homo sapiens, LNCaP, LN-caP; GI=growth inhibition; read-out: GI50 LN-caP
# Procedure, shortened: (§1)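 Growth inhibition (GI), cytostatic total growth inhibition (TGI) and cytotoxic cell-kill (LC) parameters were calculated from SRB-stained cultures held under constant compound exposure, triplicates averaged.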
row,Structure (SMILES),GI50 [nM]
1,COc1cc(-c2c3c4cc(OC)c(OC(=O)[C@@H](N)Cc5ccccc5)cc4oc(=O)c3n3ccc4cc(OC(=O)[C@@H](N)Cc5ccccc5)c(OC)cc4c23)ccc1OC(=O)[C@@H](N)Cc1ccccc1 [Compound 204],79

# Same assay, conditions: Homo sapiens, LNCaP, LN-caP; cell killing (cytotoxic effect); read-out: LC50 LN-caP
row,Structure (SMILES),CC50 [nM]
1,COc1cc(-c2c3c4cc(OC)c(OC(=O)[C@@H](N)Cc5ccccc5)cc4oc(=O)c3n3ccc4cc(OC(=O)[C@@H](N)Cc5ccccc5)c(OC)cc4c23)ccc1OC(=O)[C@@H](N)Cc1ccccc1 [Compound 204],597

# Same assay, conditions: Homo sapiens, LNCaP, LN-caP; total growth inhibition (cytostatic effect); read-out: TGI LN-caP
row,Structure (SMILES),IC (TGI) [nM]
1,COc1cc(-c2c3c4cc(OC)c(OC(=O)[C@@H](N)Cc5ccccc5)cc4oc(=O)c3n3ccc4cc(OC(=O)[C@@H](N)Cc5ccccc5)c(OC)cc4c23)ccc1OC(=O)[C@@H](N)Cc1ccccc1 [Compound 204],229

# Test system: HeLa-APL
# Experiment: SRB colorimetric cell growth inhibition assay, HeLa-APL (aplidine resistant)
# Type: cell-based
# Conditions: Homo sapiens, HELA-APL; GI=growth inhibition; read-out: GI50 HELA-APL
# Procedure, shortened: as §1
row,Structure (SMILES),GI50 [nM]
1,COc1cc(-c2c3c4cc(OC)c(OC(=O)[C@@H](N)Cc5ccccc5)cc4oc(=O)c3n3ccc4cc(OC(=O)[C@@H](N)Cc5ccccc5)c(OC)cc4c23)ccc1OC(=O)[C@@H](N)Cc1ccccc1 [Compound 204],88.8

# Same assay, conditions: Homo sapiens, HELA-APL; cell killing (cytotoxic effect); read-out: LC50 HELA-APL
row,Structure (SMILES),CC50 [nM]
1,COc1cc(-c2c3c4cc(OC)c(OC(=O)[C@@H](N)Cc5ccccc5)cc4oc(=O)c3n3ccc4cc(OC(=O)[C@@H](N)Cc5ccccc5)c(OC)cc4c23)ccc1OC(=O)[C@@H](N)Cc1ccccc1 [Compound 204],594

# Same assay, conditions: Homo sapiens, HELA-APL; total growth inhibition (cytostatic effect); read-out: TGI HELA-APL
row,Structure (SMILES),IC (TGI) [nM]
1,COc1cc(-c2c3c4cc(OC)c(OC(=O)[C@@H](N)Cc5ccccc5)cc4oc(=O)c3n3ccc4cc(OC(=O)[C@@H](N)Cc5ccccc5)c(OC)cc4c23)ccc1OC(=O)[C@@H](N)Cc1ccccc1 [Compound 204],235

# Test system: PANC-1
# Experiment: SRB colorimetric cell growth inhibition assay, PANC-1
# Type: cell-based
# Conditions: Homo sapiens, PANC-1, PANC-1; GI=growth inhibition; read-out: GI50 PANC-1
# Procedure, shortened: as §1
row,Structure (SMILES),GI50 [nM]
1,COc1cc(-c2c3c4cc(OC)c(OC(=O)[C@@H](N)Cc5ccccc5)cc4oc(=O)c3n3ccc4cc(OC(=O)[C@@H](N)Cc5ccccc5)c(OC)cc4c23)ccc1OC(=O)[C@@H](N)Cc1ccccc1 [Compound 204],44.7

# Same assay, conditions: Homo sapiens, PANC-1, PANC-1; cell killing (cytotoxic effect); read-out: LC50 PANC-1
row,Structure (SMILES),CC50 [nM]
1,COc1cc(-c2c3c4cc(OC)c(OC(=O)[C@@H](N)Cc5ccccc5)cc4oc(=O)c3n3ccc4cc(OC(=O)[C@@H](N)Cc5ccccc5)c(OC)cc4c23)ccc1OC(=O)[C@@H](N)Cc1ccccc1 [Compound 204],392

# Same assay, conditions: Homo sapiens, PANC-1, PANC-1; total growth inhibition (cytostatic effect); read-out: TGI PANC-1
row,Structure (SMILES),IC (TGI) [nM]
1,COc1cc(-c2c3c4cc(OC)c(OC(=O)[C@@H](N)Cc5ccccc5)cc4oc(=O)c3n3ccc4cc(OC(=O)[C@@H](N)Cc5ccccc5)c(OC)cc4c23)ccc1OC(=O)[C@@H](N)Cc1ccccc1 [Compound 204],171

# Test system: K-562
# Experiment: SRB colorimetric cell growth inhibition assay, K-562
# Type: cell-based
# Conditions: Homo sapiens, K562, K-562; GI=growth inhibition; read-out: GI50 K-562
# Procedure, shortened: as §1
row,Structure (SMILES),GI50 [nM]
1,COc1cc(-c2c3c4cc(OC)c(OC(=O)[C@@H](N)Cc5ccccc5)cc4oc(=O)c3n3ccc4cc(OC(=O)[C@@H](N)Cc5ccccc5)c(OC)cc4c23)ccc1OC(=O)[C@@H](N)Cc1ccccc1 [Compound 204],7.48

# Same assay, conditions: Homo sapiens, K562, K-562; cell killing (cytotoxic effect); read-out: LC50 K-562
row,Structure (SMILES),CC50 [nM]
1,COc1cc(-c2c3c4cc(OC)c(OC(=O)[C@@H](N)Cc5ccccc5)cc4oc(=O)c3n3ccc4cc(OC(=O)[C@@H](N)Cc5ccccc5)c(OC)cc4c23)ccc1OC(=O)[C@@H](N)Cc1ccccc1 [Compound 204],596

# Same assay, conditions: Homo sapiens, K562, K-562; total growth inhibition (cytostatic effect); read-out: TGI K-562
row,Structure (SMILES),IC (TGI) [nM]
1,COc1cc(-c2c3c4cc(OC)c(OC(=O)[C@@H](N)Cc5ccccc5)cc4oc(=O)c3n3ccc4cc(OC(=O)[C@@H](N)Cc5ccccc5)c(OC)cc4c23)ccc1OC(=O)[C@@H](N)Cc1ccccc1 [Compound 204],203

# Test system: LoVo-Dox
# Experiment: SRB colorimetric cell growth inhibition assay, LoVo-Dox (MDR)
# Type: cell-based
# Conditions: Homo sapiens, LOVO-DOX; GI=growth inhibition; read-out: GI50 LOVO-DOX
# Procedure, shortened: as §1
row,Structure (SMILES),GI50 [nM]
1,COc1cc(-c2c3c4cc(OC)c(OC(=O)[C@@H](N)Cc5ccccc5)cc4oc(=O)c3n3ccc4cc(OC(=O)[C@@H](N)Cc5ccccc5)c(OC)cc4c23)ccc1OC(=O)[C@@H](N)Cc1ccccc1 [Compound 204],160

# Same assay, conditions: Homo sapiens, LOVO-DOX; cell killing (cytotoxic effect); read-out: LC50 LOVO-DOX
row,Structure (SMILES),CC50 [nM]
1,COc1cc(-c2c3c4cc(OC)c(OC(=O)[C@@H](N)Cc5ccccc5)cc4oc(=O)c3n3ccc4cc(OC(=O)[C@@H](N)Cc5ccccc5)c(OC)cc4c23)ccc1OC(=O)[C@@H](N)Cc1ccccc1 [Compound 204],9520

# Same assay, conditions: Homo sapiens, LOVO-DOX; total growth inhibition (cytostatic effect); read-out: TGI LOVO-DOX
row,Structure (SMILES),IC (TGI) [nM]
1,COc1cc(-c2c3c4cc(OC)c(OC(=O)[C@@H](N)Cc5ccccc5)cc4oc(=O)c3n3ccc4cc(OC(=O)[C@@H](N)Cc5ccccc5)c(OC)cc4c23)ccc1OC(=O)[C@@H](N)Cc1ccccc1 [Compound 204],6340

# Test system: IGROV
# Experiment: SRB colorimetric cell growth inhibition assay, IGROV
# Type: cell-based
# Conditions: Homo sapiens, IGROV; GI=growth inhibition; read-out: GI50 IGROV
# Procedure, shortened: as §1
row,Structure (SMILES),GI50 [nM]
1,COc1cc(-c2c3c4cc(OC)c(OC(=O)[C@@H](N)Cc5ccccc5)cc4oc(=O)c3n3ccc4cc(OC(=O)[C@@H](N)Cc5ccccc5)c(OC)cc4c23)ccc1OC(=O)[C@@H](N)Cc1ccccc1 [Compound 204],23.8

# Same assay, conditions: Homo sapiens, IGROV; cell killing (cytotoxic effect); read-out: LC50 IGROV
row,Structure (SMILES),CC50 [nM]
1,COc1cc(-c2c3c4cc(OC)c(OC(=O)[C@@H](N)Cc5ccccc5)cc4oc(=O)c3n3ccc4cc(OC(=O)[C@@H](N)Cc5ccccc5)c(OC)cc4c23)ccc1OC(=O)[C@@H](N)Cc1ccccc1 [Compound 204],526

# Same assay, conditions: Homo sapiens, IGROV; total growth inhibition (cytostatic effect); read-out: TGI IGROV
row,Structure (SMILES),IC (TGI) [nM]
1,COc1cc(-c2c3c4cc(OC)c(OC(=O)[C@@H](N)Cc5ccccc5)cc4oc(=O)c3n3ccc4cc(OC(=O)[C@@H](N)Cc5ccccc5)c(OC)cc4c23)ccc1OC(=O)[C@@H](N)Cc1ccccc1 [Compound 204],113

# Test system: SK-BR-3
# Experiment: SRB colorimetric cell growth inhibition assay, SK-BR-3
# Type: cell-based
# Conditions: Homo sapiens, SK-BR-3, SK-BR-3; GI=growth inhibition; read-out: GI50 SK-BR-3
# Procedure, shortened: as §1
row,Structure (SMILES),GI50 [nM]
1,COc1cc(-c2c3c4cc(OC)c(OC(=O)[C@@H](N)Cc5ccccc5)cc4oc(=O)c3n3ccc4cc(OC(=O)[C@@H](N)Cc5ccccc5)c(OC)cc4c23)ccc1OC(=O)[C@@H](N)Cc1ccccc1 [Compound 204],151

# Same assay, conditions: Homo sapiens, SK-BR-3, SK-BR-3; cell killing (cytotoxic effect); read-out: LC50 SK-BR-3
row,Structure (SMILES),CC50 [nM]
1,COc1cc(-c2c3c4cc(OC)c(OC(=O)[C@@H](N)Cc5ccccc5)cc4oc(=O)c3n3ccc4cc(OC(=O)[C@@H](N)Cc5ccccc5)c(OC)cc4c23)ccc1OC(=O)[C@@H](N)Cc1ccccc1 [Compound 204],1090

# Same assay, conditions: Homo sapiens, SK-BR-3, SK-BR-3; total growth inhibition (cytostatic effect); read-out: TGI SK-BR-3
row,Structure (SMILES),IC (TGI) [nM]
1,COc1cc(-c2c3c4cc(OC)c(OC(=O)[C@@H](N)Cc5ccccc5)cc4oc(=O)c3n3ccc4cc(OC(=O)[C@@H](N)Cc5ccccc5)c(OC)cc4c23)ccc1OC(=O)[C@@H](N)Cc1ccccc1 [Compound 204],390
